Reference: patent US11046686B2, “Thiadiazole IRAK4 compounds” (Gilead Sciences, Inc., priority 2018, dated 2021)
Where two headings read alike, the source gives them in different places.

System: TNFα
Experiment: IRAK4 Monocyte TNFα Cell Based Assay
Set-up: species or system human
Settings: human monocytes, second part of Table 2, compounds 33-343, unit inferred, read-out: EC50 MONO TNF HTRF
Protocol: IRAK4 Monocyte TNFα Cell Based Assay Procedure:
The cell suspension was then plated at a density of 5,000 cells/well onto black 384 well Greiner clear bottom plates. Plates were pre-spotted with test compounds and serially diluted in DMSO where 40 nL/well were delivered using the Echo 550 acoustic liquid dispenser (Labcyte®) for a final DMSO concentration of 0.1%. Plated cells were treated with compound for 1 hour at 37° C. Cells were then stimulated with 50 pg/ml of LPS (Sigma) excluding outside columns of plate used for unstimulated cell control wells. Cells were incubated for an additional 4 hours at 37° C. Cells were then spun out of the media and 5 μl of sample were taken and analyzed for total TNFα content using the TR-FRET Human TNFα detection system (CisBio). This system utilizes two labeled antibodies (cryptate and XL665) that bind to two different epitopes of the TNFα molecule and produce FRET signal proportional to the concentration of TNFα in the sample. Detection antibodies are mixed 50:50 and 5 μL were dispensed into each well. Plates were covered with clear seals and incubated at room temp overnight. […] Percent of control was calculated as follows: % Control=100×(Ratiosample−Ratio0% stimulation)/(Ratio100% Stimulation−Ratio0% Stimulation) where unstimulated cells (0% stimulation) were the negative control and stimulated cells (100% stimulation) were used as the positive control.

| Compound | EC50 (Homo sapiens, Monocyte) [nM] | EC50 [nM] |
| --- | --- | --- |
| CC(C)Nc1cc(-c2ccc3cc(C#N)cnn23)ncc1-c1nnc([C@@H]2CC[C@H]2C(C)(C)O)s1 (racemic) [Example 88, 7-(5-(5-((1,2-trans)-2-(2-hydroxypropan-2-yl)cyclobutyl)-1,3,4-thiadiazol-2-yl)-4-(isopropylamino)pyridin-2-yl)pyrrolo[1,2-b]pyridazine-3-carbonitrile] | 27.1 |  |
| CC(=O)NC1CCC(F)(c2nnc(-c3cnc(-c4ccc5cc(C#N)cnn45)cc3NC3COC3)s2)CC1 (single isomer, unassigned) [Example 195, N-(4-(5-(6-(3-cyanopyrrolo[1,2-b]pyridazin-7-yl)-4-(oxetan-3-ylamino)pyridin-3-yl)-1,3,4-thiadiazol-2-yl)-4-fluorocyclohexy)acetamide] |  | 334 |
| CC(=O)NC1CCC(F)(c2nnc(-c3cnc(-c4ccc5cc(C#N)cnn45)cc3NC3COC3)s2)CC1 (single isomer, unassigned) [Example 196, N-(4-(5-(6-(3-cyanopyrrolo[1,2-b]pyridazin-7-yl)-4-(oxetan-3-ylamino)pyridin-3-yl)-1,3,4-thiadiazol-2-yl)-4-fluorocyclohexy)acetamide] |  | 107 |
| CC1(O)CCC(c2nnc(-c3cnc(-c4ccc5cc(C#N)cnn45)cc3NC3COC3)s2)CC1 (single isomer, unassigned) [Example 206, 7-(5-(5-(4-hydroxy-4-methylcyclohexyl)-1,3,4-thiadiazol-2-yl)-4-(oxetan-3-ylamino)pyridin-2-yl)pyrrolo[1,2-b]pyridazine-3-carbonitrile] | 13.9 |  |
| CC(=O)NC1CCN(c2nnc(-c3cnc(-c4ccc5cc(C#N)cnn45)cc3NC(C)C)s2)C[C@@H]1O (stereo in doubt) [Example 64, N-((3S,4R)-1-(5-(6-(3-cyanopyrrolo[1,2-b]pyridazin-7-yl)-4-(isopropylamino)pyridin-3-yl)-1,3,4-thiadiazol-2-yl)-3-hydroxypiperidin-4-yl)acetamide] | 6.9 |  |
| CC(=O)N1CCN(c2nnc(-c3cnc(-c4ccc5cc(C#N)cnn45)cc3NC(C)C)s2)CC1 [Compound 232, 7-(5-(5-(4-acetylpiperazin-l-yl)-1,3,4-thiadiazol-2-yl)-4-(isopropylamino)pyridin-2-yl)pyrrolo[1,2-b]pyridazine-3-carbonitrile] |  | 7.4 |
| CC(=O)N[C@@H]1[C@@H]2CN(c3nnc(-c4cnc(-c5ccc6cc(C#N)cnn56)cc4NC(C)C)s3)C[C@@H]21 [Compound 239, N-((1R,5S,6r)-3-(5-(6-(3-cyanopyrrolo[1,2-b]pyridazin-7-yl)-4-(isopropylamino)pyridin-3-yl)-1,3,4-thiadiazol-2-yl)-3-azabicyclo[3.1.0]hexan-6-yl)acetamide] |  | 4.9 |
| CC(=O)N[C@H]1[C@@H]2CN(c3nnc(-c4cnc(-c5ccc6cc(C#N)cnn56)cc4NC(C)C)s3)C[C@@H]21 [Compound 240, N-((1R,5S,6s)-3-(5-(6-(3-cyanopyrrolo[1,2-b]pyridazin-7-yl)-4-(isopropylamino)pyridin-3-yl)-1,3,4-thiadiazol-2-yl)-3-azabicyclo[3.1.0]hexan-6-yl)acetamide] |  | 8.9 |
| CC(=O)NC1CCC(c2nnc(-c3cnc(-c4ccc5cc(C#N)cnn45)cc3NC34CCC(O)(CC3)CC4)s2)CC1 (stereo not drawn) [Compound 241, N-((1r,4r)-4-(5-(6-(3-cyanopyrrolo[1,2-b]pyridazin-7-yl)-4-((4-hydroxybicyclo[2.2.2]octan-1-yl)amino)pyridin-3-yl)-1,3,4-thiadiazol-2-yl)cyclohexyl)acetamide] |  | 4.8 |
| CC(=O)N[C@H]1CC[C@H](c2nnc(-c3cnc(-c4ccc5cc(C#N)cnn45)cc3N[C@H]3C[C@@](C)(O)C3)s2)CC1 [Compound 243, N-((1R,4r)-4-(5-(6-(3-cyanopyrrolo[1,2-b]pyridazin-7-yl)-4-(((1s,3S)-3-hydroxy-3-methylcyclobutyl)amino)pyridin-3-yl)-1,3,4-thiadiazol-2-yl)cyclohexyl)acetamide] |  | 6.4 |
| CC(=O)N[C@H]1CC[C@H](c2nnc(-c3cnc(-c4ccc5cc(C#N)cnn45)cc3N[C@H]3CCC[C@@H](O)C3)s2)CC1 [Compound 245, N-((1S,4r)-4-(5-(6-(3-cyanopyrrolo[1,2-b]pyridazin-7-yl)-4-(((1S,3R)-3-hydroxycyclohexyl)amino)pyridin-3-yl)-1,3,4-thiadiazol-2-yl)cyclohexyl)acetamide] |  | 3.2 |
| CC(=O)N[C@H]1CC[C@H](c2nnc(-c3cnc(-c4ccc5cc(C#N)cnn45)cc3NC3CCOCC3)s2)CC1 [Compound 255, N-((1r,4r)-4-(5-(6-(3-cyanopyrrolo[1,2-b]pyridazin-7-yl)-4-((tetrahydro-2H-pyran-4-yl)amino)pyridin-3-yl)-1,3,4-thiadiazol-2-yl)cyclohexyl)acetamide] |  | 5.1 |
| CC(=O)N1C2CC1CN(c1nnc(-c3cnc(-c4ccc5cc(C#N)cnn45)cc3NC(C)C)s1)C2 [Compound 258, 7-(5-(5-(6-acetyl-3,6-diazabicyclo[3.1.1]heptan-3-yl)-1,3,4-thiadiazo1-2-yl)-4-(isopropylamino)pyridin-2-yl)pyrrolo[1,2-b]pyridazine-3-carbonitrile] |  | 5.8 |
| CC(=O)N1CC2CCC(C1)N2c1nnc(-c2cnc(-c3ccc4cc(C#N)cnn34)cc2NC(C)C)s1 [Compound 260, 7-(5-(5-(3-acety1-3,8-diazabicyclo[3.2.1]octan-8-yl)-1,3,4-thiadiazol-2-yl)-4-(isopropylamino)pyridin-2-yl)pyrrolo[1,2-b]pyridazine-3-carbonitrile] |  | 15.8 |
| CC(=O)N1CC2CC(C1)N2c1nnc(-c2cnc(-c3ccc4cc(C#N)cnn34)cc2NC(C)C)s1 [Compound 261, 7-(5-(5-(3-acety1-3,6-diazabicyclo[3.1.1]heptan-6-yl)-1,3,4-thiadiazol-2-yl)-4-(isopropylamino)pyridin-2-yl)pyrrolo[1,2-b]pyridazine-3-carbonitrile] |  | 18.3 |
| CC(C)Nc1cc(-c2ccc3cc(C#N)cnn23)ncc1-c1nnc(N2CCS(=N)(=O)CC2)s1 [Compound 262, 7-(5-(5-(1-imino-1-oxido-116-thiomorpholino)-1,3,4-thiadiazo1-2-yl)-4-(isopropylamino)pyridin-2-yl)pyrrolo[1,2-b]pyridazine-3-carbonitrile] |  | 69.9 |
| CC(=O)N1C2CCC1CN(c1nnc(-c3cnc(-c4ccc5cc(C#N)cnn45)cc3NC3(C)COC3)s1)C2 [Compound 264] |  | 2.7 |
| CC(=O)N1C[C@H]2COC[C@@H](C1)N2c1nnc(-c2cnc(-c3ccc4cc(C#N)cnn34)cc2NC(C)C)s1 [Compound 266] |  | 3.2 |
| CC(=O)N[C@H]1CC[C@H](c2nnc(-c3cnc(-c4ccc5cc(C#N)cnn45)cc3NC3(C)CCOCC3)s2)CC1 [Compound 268, N-((1r,4r)-4-(5-(6-(3-cyanopyrrolo[1,2-b]pyridazin-7-yl)-4-((4-methyltetrahydro-2H-pyran-4-yl)amino)pyridin-3-yl)-1,3,4-thiadiazol-2-yl)cyclohexyl)acetamide] |  | 14.1 |
| CC(=O)N1[C@@H]2COC[C@H]1CN(c1nnc(-c3cnc(-c4ccc5cc(C#N)cnn45)cc3NC3CCOCC3)s1)C2 [Compound 269, 7-(5-(5-((1R,5S)-9-acety1-3-oxa-7,9-diazabicyclo[3.3.1]nonan-7-yl)-1,3,4-thiadiazol-2-yl)-4-((tetrahydro-2H-pyran-4-yl)amino)pyridin-2-yl)pyrrolo[1,2-b]pyridazine-3-carbonitrile] |  | 5.8 |
| CC(=O)N[C@@H]1[C@@H]2CC[C@H]1CN(c1nnc(-c3cnc(-c4ccc5cc(C#N)cnn45)cc3NC3(C)CCOCC3)s1)C2 [Compound 272, N-((1R,5S,8s)-3-(5-(6-(3-cyanopyrrolo[1,2-b]pyridazin-7-yl)-4-((4-methyltetrahydro-2H-pyran-4-yl)amino)pyridin-3-yl)-1,3,4-thiadiazol-2-yl)-3-azabicyclo[3.2.1]octan-8-yl)acetamide] |  | 4.1 |
| CC(C)Nc1cc(-c2ccc3cc(C#N)cnn23)ncc1-c1nnc(N2C3CC2CN(C(=O)CN=S(C)(C)=O)C3)s1 [Compound 276, 7-(5-(5-(3-(2-((dimethyl(oxo)-16-sulfanylidene)amino)acetyl)-3,6-diazabicyclo[3.1.1]heptan-6-yl)-1,3,4-thiadiazol-2-yl)-4-(isopropylamino)pyridin-2-yl)pyrrolo[1,2-b]pyridazine-3-carbonitrile] |  | 7.8 |
| CC(=O)N[C@H]1C[C@H](c2nnc(-c3cnc(-c4ccc5cc(C#N)cnn45)cc3NC(C)C)s2)C1 [Compound 278, N-((1r,3r)-3-(5-(6-(3-cyanopyrrolo[1,2-b]pyridazin-7-yl)-4-(isopropylamino)pyridin-3-yl)-1,3,4-thiadiazol-2-yl)cyclobutyl)acetamide] |  | 10000 |
| CC(=O)N[C@H]1C[C@@H](c2nnc(-c3cnc(-c4ccc5cc(C#N)cnn45)cc3NC(C)C)s2)C1 [Compound 279, N-((1s,3s)-3-(5-(6-(3-cyanopyrrolo[1,2-b]pyridazin-7-yl)-4-(isopropylamino)pyridin-3-yl)-1,3,4-thiadiazol-2-yl)cyclobutyl)acetamide] |  | 15.9 |
| CC(C)Nc1cc(-c2ccc3cc(C#N)cnn23)ncc1-c1nnc(CC#N)s1 [Compound 321] |  | 53.5 |
| CC(C)Nc1cc(-c2ccc3cc(C#N)cnn23)ncc1-c1nnc(C2CCOC2)s1 (stereo not drawn) [Compound 322] |  | 419 |
| CC(=O)N[C@H]1CN(c2nnc(-c3cnc(-c4ccc5cc(C#N)cnn45)cc3NC(C)C)s2)CC12CC2 [Compound 323] |  | 3.7 |
